{"source": "patent US12611406B2", "about": "“Oxopiperazine derivatives for the treatment of cancer” (Inthera Bioscience AG, priority 2020, dated 2026)", "key": {"SCLC-21H": {"test_system": "SCLC-21H", "test": "S-phase arrest (cell cycle FACS)", "type": "cell-based", "set-up": "key: “+” (present); “−” (absent)", "conditions": "Rb x, p53 x", "method": "(§1) Cell cycle phase distribution in control (C) cells or cells treated at 20 or 200 nM Compound 1 for 24 hours (24 h) determined by fluorescence activated cell sorting (FACS) analysis, and detection of histone H2A variant H2A.X phosphorylation (γH2A.X, also referred to herein as gamma H2A.X or γH2A.X) by Western blot as DNA damage biomarker.\n(§2) In table 1, “wt”=wild-type; “x”=cells harboring Rb and p53 deficiencies; “+” (present) or “−” (absent) indicate the arrest (i.e. accumulation) of cells in S-phase triggered by Compound 1, which coincided with accumulation of the DNA damage marker phosphorylated gamma H2AX (γH2AX; see FIG. 3A). These events are followed by activation of caspases 3 and 7 as indicators of cell apoptosis as indicated by “+” (present) or “−” (absent). In cancer cells with intact Rb and/or p53 functions (wt=wild-type), Compound 1 induced growth arrest but not a substantial increase of cells in S-phase (=S-phase arrest). Upon release of treatment, such cells are able to proliferate again."}, "DU-145": {"test_system": "DU-145", "test": "S-phase arrest (cell cycle FACS)", "type": "cell-based", "set-up": "key: “+” (present); “−” (absent)", "conditions": "Rb x, p53 x", "method": "as §1, §2"}, "NCI-H660 [1]": {"test_system": "NCI-H660", "test": "S-phase arrest (cell cycle FACS)", "type": "cell-based", "set-up": "key: “+” (present); “−” (absent)", "conditions": "Rb x, p53 x", "method": "as §1, §2"}, "BT-549": {"test_system": "BT-549", "test": "S-phase arrest (cell cycle FACS)", "type": "cell-based", "set-up": "key: “+” (present); “−” (absent)", "conditions": "Rb x, p53 x", "method": "as §1, §2"}, "22Rv1": {"test_system": "22Rv1", "test": "S-phase arrest (cell cycle FACS)", "type": "cell-based", "set-up": "key: “+” (present); “−” (absent)", "conditions": "Rb wt, p53 wt", "method": "as §1, §2"}, "NCI-H209": {"test_system": "NCI-H209", "test": "S-phase arrest (cell cycle FACS)", "type": "cell-based", "set-up": "key: “+” (present); “−” (absent)", "conditions": "Rb x, p53 x", "method": "as §1, §2"}, "LNCaP": {"test_system": "LNCaP", "test": "S-phase arrest (cell cycle FACS)", "type": "cell-based", "set-up": "key: “+” (present); “−” (absent)", "conditions": "Rb wt, p53 wt", "method": "as §1, §2"}, "Hut-78": {"test_system": "Hut-78", "test": "S-phase arrest (cell cycle FACS)", "type": "cell-based", "set-up": "key: “+” (present); “−” (absent)", "conditions": "Rb x, p53 x", "method": "as §1, §2"}, "Y-79": {"test_system": "Y-79", "test": "S-phase arrest (cell cycle FACS)", "type": "cell-based", "set-up": "key: “+” (present); “−” (absent)", "conditions": "Rb x, p53 wt", "method": "as §1, §2"}, "NCI-H146": {"test_system": "NCI-H146", "test": "S-phase arrest (cell cycle FACS)", "type": "cell-based", "set-up": "key: “+” (present); “−” (absent)", "conditions": "Rb x, p53 x", "method": "as §1, §2"}, "NCI-H69 [2]": {"test_system": "NCI-H69", "test": "S-phase arrest (cell cycle FACS)", "type": "cell-based", "set-up": "key: “+” (present); “−” (absent)", "conditions": "Rb x, p53 x", "method": "as §1, §2"}, "NCI-H82": {"test_system": "NCI-H82", "test": "S-phase arrest (cell cycle FACS)", "type": "cell-based", "set-up": "key: “+” (present); “−” (absent)", "conditions": "Rb x, p53 x", "method": "as §1, §2"}, "[3]": {"test_system": "human enzymes, transporters, kinases, receptors and ion channels", "test": "In vitro safety pharmacology panels", "method": "Compound 1 was tested using in vitro safety pharmacology panels encompassing human enzymes, transporters, kinases, receptors and ion channels thought to be potential contributors to adverse drug reactions."}, "SNU-5": {"test_system": "SNU-5", "test": "SNU-5 gastric cancer CDX mouse model", "type": "in vivo", "conditions": "for Tumor growth inhibition: p <0.001", "method": "Left panel: Tumor growth curves. Right panel: Body weight development. […] QD: once daily treatment; po: per os.\nLeft panel: Tumor growth curves. Right panel: Body weight development. […] QW: once weekly treatment. p.o.: per oral.\nCompound 1 (3 mg/kg) was administered orally to the gastric cancer CDX model of SNU-5 cells (FIG. 8C), which harbor a loss-of-function of p53 and mutations in the CDKN2A gene loci, the latter controlling the Rb and p53 pathways.\n(§3) Values larger than 100% indicate tumor regression."}, "p300": {"test_system": "p300", "test": "Western blot of p53 acetylated by p300 on K382 in LNCaP cells", "type": "cell-based", "method": "Top panel: Cell cycle distribution in LNCap cells treated with siRNA (2 bars on the right) in comparison to control LNCaP cells without siRNA treatment (2 bars in the middle), in the absence (−) or presence (+) of Compound 1 for 24 h at the indicated concentration. For comparison, DU-145 cells harboring a combined Rb1 and p53 loss-of-function are included (2 bars on the left). Lower panel: Western blot analysis according to the same experimental conditions as given for the top panel."}, "NCI-H660 [4]": {"test_system": "NCI-H660", "test": "NCI-H660 prostate cancer CDX mouse model", "type": "in vivo", "conditions": "for Tumor growth inhibition: 6 weeks", "excerpt": "Left panel: Tumor growth curves. Right panel: Body weight development. The dosing regimen is indicated as dots below the curves. BID: twice daily treatment. QW: once weekly treatment. p.o.: per oral.\nNCI-H660 cells represent a rather far advanced PC type in which not only the tumor suppressor functions of Rb1 and p53 have been lost (see Table 1). Furthermore, the cells already have developed a small cell phenotype characteristic of advanced treatment-resistant PC. In contrast, 22Rv1 tumor cells that are wild-type for Rb1 and p53 pathways were less sensitive to Compound 1 treatment when a once weekly dosing scheme was used.\nas §3"}, "NCI-H69 [5]": {"test_system": "NCI-H69", "test": "NCI-H69 small cell lung cancer CDX mouse model", "conditions": "for Tumor growth inhibition: p <0.001", "procedure": "The 30 mg/kg group was given initially QW at 30 mg/kg and from day 31 onwards was given once weekly at 60 mg/kg, as indicated.\nIn Table 2, tumor growth inhibition (TGI) calculations are based on additional growth of tumors, i.e., tumor sizes on the day of TGI estimation minus tumor sizes at the start of treatment are used for calculations. Values larger than 100% indicate tumor regression. […] The total daily dose of 60 mg/kg was administered as *single dose or given as **30 mg/kg BID (twice daily)."}, "PC cells": {"test_system": "PC cells", "test": "Anti-proliferative assay, five day treatment, CellTiter-Glo", "type": "cell-based", "conditions": "growth inhibition", "excerpt": "The amount of cells remaining at the end of the treatment was estimated by CellTiter-Glo (Promega).\nMany of the cell lines in this subset had deficiencies in the Rb1 and p53 tumor suppressor pathways."}, "[6]": {"test": "Plasma protein binding, equilibrium dialysis", "type": "in vitro ADME, cynomolgus monkey", "conditions": "monkey plasma, 37° C, buffer pH 7.4; read-out: Fraction unbound (Fu), Mean", "method": "Protein binding of Compound 1 to the plasma from several species, i.e., human, cynomolgus monkey, dog, rat, and mouse was investigated in vitro by incubation in plasma and determination of unbound fraction of Compound 1 using equilibrium dialysis. Compound 1 was incubated in 100% species-specific plasma and added to one side of the membrane in an equilibrium dialysis system while buffer (pH 7.4) is added to the other side. The system was allowed to reach equilibrium at 37° C. Compound concentration on both sides of the membrane is measured by liquid chromatography—tandem mass spectroscopy (LC-MS/MS)."}, "[7]": {"conditions": "once weekly 15 mg/kg/day, 7 weeks"}}, "data": [{"smiles": "CC(C)C[C@@H]1NCCN([C@@H](CC(C)C)C(=O)N2CCC3(C[C@@H]2C)OCC(CN2CCCC2)CO3)C1=O", "note": "(stereo partly drawn) [Compound 1, (S)-3-isobutyl-1-((S)-4-methyl-1-((S)-8-methyl-3-(pyrrolidin-1-ylmethyl)-1,5-dioxa-9-azaspiro[5.5]undecan-9-yl)-1-oxopentan-2-yl)piperazin-2-one]", "values": [{"measurement": "S-Phase Arrest", "setting": "SCLC-21H", "value": "+"}, {"measurement": "S-Phase Arrest", "setting": "DU-145", "value": "+"}, {"measurement": "S-Phase Arrest", "setting": "NCI-H660 [1]", "value": "+"}, {"measurement": "S-Phase Arrest", "setting": "BT-549", "value": "+"}, {"measurement": "S-Phase Arrest", "setting": "22Rv1", "value": "−"}, {"measurement": "S-Phase Arrest", "setting": "NCI-H209", "value": "+"}, {"measurement": "S-Phase Arrest", "setting": "LNCaP", "value": "−"}, {"measurement": "S-Phase Arrest", "setting": "Hut-78", "value": "+"}, {"measurement": "S-Phase Arrest", "setting": "Y-79", "value": "−"}, {"measurement": "S-Phase Arrest", "setting": "NCI-H146", "value": "+"}, {"measurement": "S-Phase Arrest", "setting": "NCI-H69 [2]", "value": "+"}, {"measurement": "S-Phase Arrest", "setting": "NCI-H82", "value": "+"}, {"measurement": "responses in safety pharmacology panels", "setting": "[3]", "value": "No significant responses were detected"}, {"measurement": "anti-tumor efficacy, every other week vs daily", "setting": "SNU-5; 3 mg/kg oral", "value": "comparable anti-tumor efficacies"}, {"measurement": "tumor growth", "setting": "SNU-5; 30 mg/kg once every seven days for 7 weeks", "value": "almost complete inhibition of tumor growth"}, {"measurement": "Tumor growth inhibition", "setting": "SNU-5; [7]", "value": "62% (<0.001)/"}, {"measurement": "Tumor growth inhibition", "setting": "SNU-5; once weekly 30 mg/kg/day, 7 weeks", "value": "91% (<0.001)/"}, {"measurement": "Tumor growth inhibition", "setting": "SNU-5; once weekly 60 mg/kg/day as 30 mg/kg BID, 5 weeks", "value": "98% (<0.001)/**5 weeks"}, {"measurement": "amount of p53 acetylated by p300 on K382", "setting": "p300; control LNCaP cells", "value": "increased"}, {"measurement": "HAT/KAT activity of p300", "setting": "p300; inferred from p53 K382 acetylation", "value": "not inhibited"}, {"measurement": "Tumor growth inhibition", "setting": "NCI-H660 [4]; once weekly 15 mg/kg/day, p 0.002", "value": "74% (0.002)/"}, {"measurement": "Tumor growth inhibition", "setting": "NCI-H660 [4]; once weekly 30 mg/kg/day, p 0.001", "value": "84% (0.001)"}, {"measurement": "tumor growth", "setting": "NCI-H660 [4]; once weekly 60 mg/kg", "value": "complete block of tumor growth"}, {"measurement": "Tumor growth inhibition", "setting": "NCI-H660 [4]; once weekly 60 mg/kg/day single dose, p <0.001", "value": "99% (<0.001)/*6 weeks"}, {"measurement": "body weight", "setting": "NCI-H69 [5]; 3 mg/kg oral daily continuous", "value": "slight body weight loss"}, {"measurement": "tumor response", "setting": "NCI-H69 [5]; 3 mg/kg oral daily continuous", "value": "regressions of tumors"}, {"measurement": "tolerability", "setting": "NCI-H69 [5]; 3 mg/kg oral every other week", "value": "well tolerated"}, {"measurement": "anti-tumor activity, every other week vs daily", "setting": "NCI-H69 [5]; 3 mg/kg oral, every other week compared to same dose daily", "value": "almost the same anti-tumor growth activity"}, {"measurement": "anti-tumor activity, once weekly vs daily", "setting": "NCI-H69 [5]; 30 mg/kg once every seven days, 60 mg/kg weeks 4 to 7, compared to 3 mg/kg daily", "value": "same anti-tumor growth activity"}, {"measurement": "body weight", "setting": "NCI-H69 [5]; intermittent (once weekly) dosing", "value": "did not cause significant body weight decreases"}, {"measurement": "Tumor growth inhibition", "setting": "NCI-H69 [5]; [7]", "value": "58% (<0.001)/"}, {"measurement": "Tumor growth inhibition", "setting": "NCI-H69 [5]; once weekly 30 mg/kg/day, 3 weeks", "value": "76% (<0.001)/"}, {"measurement": "Tumor growth inhibition", "setting": "NCI-H69 [5]; once weekly 60 mg/kg/day, 4 weeks, after 3 weeks at 30 mg/kg", "value": "103% (<0.001)/"}, {"measurement": "IC50 values", "setting": "PC cells", "value": "nanomolar range"}, {"measurement": "fraction unbound", "setting": "[6]", "value": 0.602}]}]}
